According to patent US20090054338A1, “Synergisms between repartitioning and immunomodulating compounds” (priority 2007, published 2009):

Key:
[1] = system: mice; test: Stress-induced mortality (modified physostigmine-induced lethality test); type: in vivo
Text: A modification of the physostigmine-induced lethality test that successfully was used for testing of sedation by Schering in the loratadine project (Villani F. J., et al., U.S. Pat. No. 4,659,716, 1987) and by Sepracor in the desloratadine project (Aberg, G. et al. U.S. Pat. No. 5,595,997) was used. In short, mice that previously had not been housed together, suffer from severe stress when placed together (n=10) in a new environment, such as a small cage with which they are not familiar. […] Similarly, increased stress by ractopamine in livestock animals has been reported by Marchant-Forde et al., 2003. […] The number of surviving mice was counted 30 minutes after the animals had been placed in the test-cage, which was 60 min after the administration of ractopamine.

[2] = system: newborn calves; test: In vivo study in newborn calves (survival to weaning); parameters: species or system cattle
Procedure: The present study was performed at a farm with a high rate of mortality of newborn calves from Cryptosporidiosis and upper respiratory infections.
Two groups of 13 newborn calves were studied. All animals were given milk replacement and beta 1.3/1.6 D-glucan was added to the milk replacement for the second group.

[3] = system: adrenergic beta-2 receptors; test: Down-regulation of adrenergic beta-2 receptors, receptor binding on adipocytes; type: in vivo; conditions: rats
Text: The populations of adrenergic beta-2 receptors on cells (adipocytes) from rats are studied.

[4] = system: barnacle naupii; conditions: cited from earlier work

CC(CCc1ccc(O)cc1)NCC(O)c1ccc(O)cc1 (stereo not drawn) [ractopamine]
stress ([1]; grouped mice in unfamiliar cage): increased the stress
mortality ([1]; mice given a sub-lethal dose of physostigmine): increased mortality

CNC(=O)Oc1ccc2c(c1)[C@]1(C)CCN(C)[C@@H]1N2C [physostigmine]
lethality ([1]; stressed grouped mice (n=10), 1.0 mg/kg s.c.): ~100%

beta 1.3/1.6 D-glucan [Agrastim®]
survival of calves ([2]; 8 weeks treatment in milk replacement, control 7 out of 13): 12 out of 13
Calves Weaned ([2]; 13 calves born, 500 mg day 1, 250 mg/day day 2-56 in milk replacement, farm with high calf mortality): 12
effect on salbutamol-induced down-regulation of adrenergic beta-2 receptors ([3]; glucan given one week before pump implantation and continuously thereafter): decreased or inhibited
stress and stress-induced mortality in ractopamine-treated animals ([1]; mice pretreated orally daily for five days, survivors counted 30 min after placing in test-cage, 60 min after ractopamine): significantly decreased stress and stress-induced mortality

CC(C)(C)NCC(O)c1ccc(O)c(CO)c1 (racemic) [salbutamol]
LD50 [4]: approximately 1.8 μg/ml
adrenergic beta-2 receptor population on adipocytes ([3]; one and two weeks continuous s.c. administration by Alza osmotic pumps): down-regulated
